From patent US20240277781A1, “Compositions Comprising Microbes and Methods of Use and Making Thereof” (Pendulum Therapeutics, Inc., priority 2021, published 2024)

How the values were obtained:
[1] = tested on: formulation strains (AMUC, BINF, CBEI, CBUT, EHAL); format: cell-based
[2] = taken orally; cited from earlier work

Structure (SMILES)	growth inhibition of formulation strains (yield decrease, lag increase) [1]	fecal elimination percentage [2] [%]	plasma half-life [2] [h]
CCC1=C(C)CN(C(=O)NCCc2ccc(S(=O)(=O)NC(=O)N[C@H]3CC[C@H](C)CC3)cc2)C1=O [glimepiride]	largest inhibitory effect overall	40	5 to 8
Cc1cnc(C(=O)NCCc2ccc(S(=O)(=O)NC(=O)NC3CCCCC3)cc2)cn1 [glipizide]	–	10	–
COc1ccc(Cl)cc1C(=O)NCCc1ccc(S(=O)(=O)NC(=O)NC2CCCCC2)cc1 [glyburide]	largest inhibitory effect overall	50	4 to 10
